Experimental data: PMC3088502 (Bioorganic & medicinal chemistry, 2011)

How the values were obtained:
BxPC3 cells = assay: Cellular proliferation / cell survival micro-cytotoxicity; assay type: cell-based, Human
[1] = test system: AKT phosphorylation at Ser473 in BxPC3 cells; assay: Detection of pAKT; assay type: cell-based, Human; details: 10 μM, 4 h

CCCCCCCCCCCCc1ccc(S(=O)(=O)Nc2ccccc2)cc1 [Compound 45]
Inhibition of BxPC-3 cell proliferation, in words (BxPC3 cells): did inhibit BxPC-3 cell proliferation
Inhibition of AKT phosphorylation at Ser473 (pAKT), in words [1]: did not inhibit the production of pAKT
